These results are taken from patent US20110088107A1, “COMPOSITIONS AND METHODS FOR DERIVING OR CULTURING PLURIPOTENT CELLS” (priority 2009, published 2011).

Test [1] has as its system 129 EpiSCs. The test is described as follows: Conversion of EpiSCs into ICM-like iPS cells. The format is cell-based, mouse. As to conditions: medium (mESM) supplemented, no transgene. The text has this: FIGS. 24(A)-24(B) show small molecule conversion of distinct pluripotent states. ([…] derived from the epiblast of day E5.5 mouse embryos or NOD […] ES cells and were reprogrammed into ICM-like after culture in the mESM+KP/CH. While most colonies differentiated due to withdrawal of bFGF and change of medium (indicated by asterisks), ES-like colonies could be observed after 7-9 days and passaged via trypsinization. Within 2 passages ICM-like ES lines could be stably generated. (B) However, NOD […] which was derived from NOD-ES #43 by withdrawing KP/CH and growing the cells in […] conditions for over 8 passages (FIG. 6F), remained dependent on KP/CH molecules. Factors and growth conditions utilized to facilitate the identity conversion at each step are indicated in parenthesis. The pluripotency state was evaluated and defined based on Oct4 enhancer activity, inhibitor sensitivity (indicated in red or blue accordingly for each line). Identical results were obtained by using PD/CH inhibitor combination or KP alone (data not shown). Work described here further analyzed whether the exogenous stimuli defined in this study could interconvert the two distinct pluripotent states. This work first tested whether infection of previously characterized E5.5 derived 129 […] et al., 2007) with a Klf4 or c-Myc Dox inducible vectors could convert the EpiSCs to an ICM-like pluripotent state. […]

Test [2] concerns NOD ES cells. Nature of the test: Blastocyst injection (2N) and chimera generation from NOD ES lines. The class given is in vivo, mouse. As to conditions: NOD ES line derived and propagated with the inhibitors; 2N injections. How it is done: Diploid B6D2F2 blastocysts (94-98 h after hCG injection) were placed in a drop of M2 medium under mineral oil. A flat-tip microinjection pipette with an internal diameter of 16 μm was used for cell injection using a Piezo micromanipulator (Primetech, Japan). About 10 cells were injected into the blastoceol cavity. After injection, the embryos were cultured in KSOM medium and placed in a 37° C. humidified CO2 chamber until transferred to recipient females. Ten to fifteen injected blastocysts were transferred to each uterine horn of 2.5 days post coitum pseudo-pregnant B6D2F1 females. For teratoma generation, 2*106 cells were injected subcutaneously into both flanks of recipient SCID mice, and tumors were harvested for sectioning 3-6 weeks after initial injection. […] were collagenased and manually dissociated into small pieces and injected subcutaneously in to immuno deficient mice.

The test system of test [3] is NOD-iPS cells. The test is described as follows: Dox-independent propagation of Dox-dependent NOD-iPS cells in supplemented mESM. The class given is cell-based, mouse (NOD). Conditions: mESM lacking Dox. From the text: FIGS. 4(A)-4(H) illustrate generation of genetically unmodified germline competent NOD ES cells. (A) Experimental outline for derivation of iPS lines that grow in the presence of small molecules and in the absence of Dox. Representative images of NOD iPS lines growing in mESM supplemented with the indicated small molecules or growth factors. (B) Single-cell cloning efficiency of NOD iPS cells in different growth conditions. WT or NOD-iPS cells grown in mESM and KP were sorted in 96 well plates and cultured in mESM supplemented with small molecules. The number of wells containing Nanog+ colonies was counted after 6 days. Efficiencies were normalized to that of C57B6/129F1-iPS cells (“permissive” controls) plated in mESM and defined as 100%. SD for average efficiencies from 2 experiments are shown. Student test P value compares KP/CH to PD/CH mESM conditions for NOD iPS cells. (C) Expansion of day E3.5 ICM derived NOD ES cells in the presence of KP, KP/CH or PD/CH and derivation of stable ES lines. Images of initial colonies observed at passage 2 after embryo dissociation are shown together with representative images at later passages. (D) Karyotype of NOD ES lines. (E) Immunostaining of NOD ES lines for pluripotency markers. Inhibitors used during cell line derivation and propagation are indicated. (F) Chimerism in adult mice generated from the indicated cell lines is evident by the presence of agouti (brown) and albino coat color originating from the NOD background. […] (G) Real-Time PCR analysis for endogenous expressed Oct4, c-Myc and Klf4 genes in NOD iPS and ES cells grown in the indicated conditions. Relative expression levels are normalized to levels detected in control 129 ES cells. (H) Southern analysis indicating correct targeting of the endogenous Nanog locus in NOD ES cells with Nanog-GFP knock-in targeting construct.
Small molecules have been identified to replace some of the reprogramming factors in iPS derivation (Huangfu et al., 2008; Shi et al., 2008). […]

The test system of test [4] is secondary transgenic MEF line (OSM). Conditions: Lyssiotis et al., 2009; cited from earlier work.

As to `O=C1Cc2c([nH]c3ccc(Br)cc23)-c2ccccc2N1` [Kenpaullone, 9-bromo-7,12-dihydroindolo[3,2-d][1]benzazepin-6(5H)-one], the “conversion of EpiSCs into iPS cells (ICM-like pluripotency)” value in test [1] was “conversion can be accomplished”. In addition, in test [2], the “% Chimerism (coat color)” value is 40-90%, the Born chimeras was found to be 17 and the “Germline Transmission” value is recorded as “yes”. Moreover, the “Dox-independent growth of pluripotent NOD-iPS cells” value in test [3] is “supported Dox-independent growth”. In test [4], the “replacement of Klf4 during iPS reprogramming” value is “replaces Klf4 during iPS reprogramming”.
